Assay results from ChEMBL document CHEMBL2007661, “Compounds: GSK PKIS; Assays: UNC Frye lab” (2012).
Values joined by “and” are separate entries in the source; they are usually repeats but may differ in a detail not shown here. Equal entries are not always repeated.

Key:
[1] = target: T1, Tyrosine-protein kinase Mer (Homo sapiens) (UniProt Q12866); conditions: at 10 µM
T1 sequence (whole entry): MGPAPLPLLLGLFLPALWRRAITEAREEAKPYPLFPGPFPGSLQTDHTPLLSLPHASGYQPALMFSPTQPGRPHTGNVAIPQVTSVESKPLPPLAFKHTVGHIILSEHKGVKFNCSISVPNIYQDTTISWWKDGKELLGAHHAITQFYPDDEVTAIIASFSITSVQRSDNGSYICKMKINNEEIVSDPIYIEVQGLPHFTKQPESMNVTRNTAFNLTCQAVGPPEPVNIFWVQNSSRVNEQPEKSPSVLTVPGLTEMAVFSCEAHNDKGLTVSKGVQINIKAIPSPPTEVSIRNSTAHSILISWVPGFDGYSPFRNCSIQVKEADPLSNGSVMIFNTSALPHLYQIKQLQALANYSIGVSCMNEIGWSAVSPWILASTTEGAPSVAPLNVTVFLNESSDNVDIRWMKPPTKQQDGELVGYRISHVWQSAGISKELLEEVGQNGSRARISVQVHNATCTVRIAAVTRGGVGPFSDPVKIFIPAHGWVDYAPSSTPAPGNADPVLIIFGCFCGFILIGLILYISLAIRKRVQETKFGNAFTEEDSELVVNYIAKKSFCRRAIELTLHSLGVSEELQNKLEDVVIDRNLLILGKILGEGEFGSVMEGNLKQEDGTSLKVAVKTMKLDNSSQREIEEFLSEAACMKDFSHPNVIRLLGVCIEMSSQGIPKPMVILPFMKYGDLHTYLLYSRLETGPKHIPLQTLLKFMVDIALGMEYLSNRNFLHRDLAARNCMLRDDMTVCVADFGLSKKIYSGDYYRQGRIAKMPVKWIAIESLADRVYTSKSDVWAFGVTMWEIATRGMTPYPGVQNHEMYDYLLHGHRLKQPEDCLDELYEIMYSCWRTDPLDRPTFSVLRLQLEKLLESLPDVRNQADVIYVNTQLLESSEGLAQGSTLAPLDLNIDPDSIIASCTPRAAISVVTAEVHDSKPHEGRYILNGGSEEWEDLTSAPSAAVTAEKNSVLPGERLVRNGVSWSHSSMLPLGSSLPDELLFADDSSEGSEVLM

[2] = target: T2, Inhibitor of nuclear factor kappa-B kinase subunit epsilon (Homo sapiens) (UniProt Q14164); conditions: at 1 µM
T2 sequence (whole entry): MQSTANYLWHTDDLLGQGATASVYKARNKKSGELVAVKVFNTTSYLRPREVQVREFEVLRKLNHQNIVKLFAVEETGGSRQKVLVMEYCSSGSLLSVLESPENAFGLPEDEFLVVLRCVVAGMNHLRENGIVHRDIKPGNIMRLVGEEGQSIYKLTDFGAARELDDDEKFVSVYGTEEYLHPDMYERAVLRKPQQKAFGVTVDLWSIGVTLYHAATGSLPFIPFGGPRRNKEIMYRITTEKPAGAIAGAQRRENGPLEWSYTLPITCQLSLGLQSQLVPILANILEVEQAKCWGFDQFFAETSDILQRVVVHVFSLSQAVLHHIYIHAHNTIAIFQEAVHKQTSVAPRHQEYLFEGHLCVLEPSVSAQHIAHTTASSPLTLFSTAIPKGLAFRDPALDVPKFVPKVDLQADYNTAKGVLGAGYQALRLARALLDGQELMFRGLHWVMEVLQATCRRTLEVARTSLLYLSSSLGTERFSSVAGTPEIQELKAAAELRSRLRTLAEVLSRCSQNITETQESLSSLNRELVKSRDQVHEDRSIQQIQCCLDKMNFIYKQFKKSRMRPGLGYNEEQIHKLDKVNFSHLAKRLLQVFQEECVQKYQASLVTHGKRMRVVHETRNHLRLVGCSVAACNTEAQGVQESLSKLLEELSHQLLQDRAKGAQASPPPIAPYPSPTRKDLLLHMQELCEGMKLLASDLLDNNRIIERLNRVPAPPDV

inhibition [1] [%] | inhibition [2] | SMILES
10 | 18% | O=C1Nc2ccccc2/C1=C/Nc1ccc(-n2cncn2)cc1
-1 | -2% | CN1CCN(CCCNc2nc3ccc(Oc4ccc(NC(=O)Nc5cc(C(F)(F)F)ccc5F)cc4)cc3[nH]2)CC1
-1 | 5% and 6% | Cc1ccc(NC(=O)c2ccnc(N3CCCC3)c2)cc1-c1ccc(C(=O)NCC2CC2)cc1
5 | 18% and 19% | CCN(CC)Cc1ccc(Nc2nccc(-c3cnn4ncccc34)n2)cc1
39 | 4% and 6% | O=C(Nc1n[nH]c2nc(-c3ccc(O)cc3)c(Br)cc12)C1CC1
-6 | -3% and -1% | CS(=O)(=O)CCNCc1nc(-c2ccc3ncnc(Nc4ccc(F)c(Cl)c4)c3c2)cs1
-6 | -2% | Cc1cc(O)cc(C)c1/C=C/c1cncc(C(N)=O)c1
49 | 29% and 27% | COc1cccc(-n2ncc3c(N/N=C/c4ccc(C(=O)NCCN(C)C)cc4)ncnc32)c1
-2 | 2% | CC1=C(C(=O)Nc2ccc3[nH]ncc3c2)C(c2ccc(F)cc2)NC(=O)N1 (stereo not given)
-1 | 92% and 91% | O=C1Nc2ccc(C(=O)c3ccco3)cc2C1=Cc1cc(Cl)c(O)c(Cl)c1
38 | 1% and 4% | ON=C1CCc2cc(-c3nc(C4CCNCC4)[nH]c3-c3ccncc3)ccc21
-2 | 3% and 2% | O=C1Nc2ccc(I)cc2C1=Cc1cc(Br)c(O)c(Br)c1
-3 | -1% | Fc1ccc(-c2cc(-c3c[nH]nc3-c3ccccn3)ccn2)cc1
0 | 22% and 26% | NS(=O)(=O)c1cccc(N/C=C2\C(=O)Nc3ccccc32)c1
-7 | -1% and -2% | Cc1cc(-c2ccccn2)cc(C)c1/C=C/c1cncc(-c2nn[nH]n2)c1
16 | 39% and 41% | NS(=O)(=O)c1ccc(N/N=C2\C(=O)Nc3ccc(-c4cnco4)cc32)cc1
-2 | 2% | Cc1cc(O)cc(C)c1/C=C/c1cncc(-c2nn[nH]n2)c1
18 | 1% and 3% | O=C1NC(=O)C(c2ccccc2Cl)=C1Nc1cccc(O)c1
6 | 2% and 1% | CCS(=O)(=O)c1ccc(OC)c(Nc2ncc(-c3ccccc3Cl)o2)c1
-2 | 3% and 0% | FC(F)(F)c1cccc(-c2nn3ncccc3c2-c2ccnc(Nc3ccc4c(c3)OCCO4)n2)c1

inhibition [1] [%] | inhibition [2] | SMILES
1 | 9% and 10% | CCCNc1cccc(-n2ncc3c(N/N=C/c4ccncc4)ncnc32)c1
13 | 2% and 3% | CCN(CC)S(=O)(=O)c1ccc(OC)c(Nc2ncc(-c3ccccc3)o2)c1
3 | -3% | COc1ccc(CNC(=O)c2ccc(-c3cc(-c4nnc(C)o4)ccc3C)cc2)cc1
92 | 2% | Cc1nnc(-c2ccc(C)c(-c3ccc(C(=O)NCc4ccc(Cl)cc4)cc3)c2)o1
18 | 1% and 0% | CC1=C(C(=O)Nc2cc(Cl)c3[nH]ncc3c2)C(c2ccc(C(F)(F)F)cc2)CC(=O)N1 (stereo not given)
-4 | 1% and 0% | NC(=O)c1ccc2c(-c3ccnc(NCCCO)n3)c(-c3ccc(F)cc3)nn2c1
-7 | -4% | CC(=O)NCc1cccc(C#Cc2cncnc2Nc2ccc(OCc3cccc(F)c3)c(Cl)c2)c1
58 | -2% and 0% | Nc1ccc(C#Cc2cncnc2Nc2ccc(OCc3cccc(F)c3)c(Cl)c2)cc1
-3 | 2% and 0% | CCOc1nccc2c1nc(-c1nonc1N)n2CC
-2 | 36% and 35% | CCn1c(-c2nonc2N)nc2c(C#CC(C)(C)O)nc(OC[C@H](N)c3ccccc3)cc21
5 | 2% and -2% | COc1ccc(-c2cc3c(N)ncnc3o2)cc1
-6 | 1% and 4% | N#Cc1c(NC(=O)c2ccccc2F)sc2c1CCCC2
3 | -1% and 0% | CN(C)CCOc1ccc(-c2nc(-c3ccncc3)c(-c3ccc4c(c3)CC/C4=N\O)[nH]2)cc1
-1 | -7% and -6% | CC(=O)Nc1cccc(C#Cc2cncnc2Nc2ccc(OCc3cccc(F)c3)c(Cl)c2)c1
-1 | 3% | CCS(=O)(=O)c1ccc(OC)c(Nc2ncc(-c3cccc(OC)c3)o2)c1
84 | 6% and 4% | COc1cccc(-n2ncc3c(N/N=C/c4ccncc4)ncnc32)c1
-4 | -2% and -1% | CCc1nn2ncccc2c1-c1ccnc(NC2CC2)n1
-3 | 0% and -1% | CNC(=O)c1cncc(/C=C/c2c(C)cccc2C)c1
4 | 1% | COc1cc2ncn(-c3cc(OCc4cccs4)c(C(N)=O)s3)c2cc1OC
3 | 5% | COc1ccccc1Nc1ncc(-c2ccccc2)o1

inhibition [1] [%] | inhibition [2] | SMILES
-6 | 52% and 51% | CCn1c(-c2nonc2N)nc2c(C#CC(C)(C)O)nc(CN3CCCC3)cc21
-1 | 1% and 3% | C[C@@H](Oc1cc(-n2cnc3ccc(OC[C@@H](O)CO)cc32)sc1C(N)=O)c1ccccc1Cl
-1 | -2% | N#Cc1c(NC(=O)CN2CCOCC2)sc2c1CCCC2
-8 | 3% and 2% | COc1cc2ncn(-c3cc(O[C@H](C)c4ccccc4Cl)c(C(N)=O)s3)c2cc1OC
10 | -2% | CN(C)c1cc2c(Nc3ccc4c(cnn4Cc4ccccc4)c3)ncnc2cn1
81 | 13% and 14% | CCn1c(-c2nonc2N)nc2cncc(C(=O)NCCNC)c21
67 | -3% and -1% | Fc1ccc(-c2ncn(C3CCNCC3)c2-c2ccnc(Oc3ccc(F)c(F)c3)n2)cc1
2 | 44% and 43% | COc1ccc2c(-c3ccnc(Nc4cccc(OC(F)(F)F)c4)n3)cnn2n1
2 | 1% and 3% | CCNC(=O)O[C@H]1CN[C@H](C#Cc2cc3ncnc(Nc4ccc(OCc5cccc(F)c5)c(Cl)c4)c3s2)C1
13 | -1% and -2% | COc1ccc(-c2nn3ncccc3c2-c2ccnc(Nc3ccc(Cl)c(C(F)(F)F)c3)n2)cc1
74 | -3% and -1% | NS(=O)(=O)c1cccc(-c2cc3ccncc3cc2OCc2ccccc2)c1
-4 | 1% | Cc1ccc(NC(=O)c2ccoc2)cc1-c1ccc(C(=O)NCC2CC2)cc1
79 | 41% and 42% | NC(=O)c1cccc(Nc2nccc(Nc3cccc4[nH]ncc34)n2)c1
-1 | -1% and 0% | c1ccc(-c2n[nH]cc2-c2ccnc(-c3ccc(OCCN4CCOCC4)cc3)c2)nc1
7 | 13% | O=C1Nc2ccccc2/C1=C1\CCc2cc(O)ccc21
10 | -1% and 0% | Fc1ccc(-c2c(-c3ccncc3)nc3n2CCS3)cc1
-2 | -1% and 0% | COc1cc(N2CCN(C(C)C)CC2)ccc1Nc1nc(Nc2cccc(F)c2C(=O)O)c2cc[nH]c2n1
-5 | 85% | NS(=O)(=O)c1ccc(NC=C2C(=O)Nc3ccc4ncsc4c32)cc1
1 | 3% and 4% | CN(C)CCOc1ccc(-c2cc(-c3ccc4c(c3)CCC4=NO)c(-c3ccncc3)o2)cc1

SMILES | inhibition [1] [%] | inhibition [2]
CNC(=O)Oc1cc(C)c(/C=C/c2cncc(C(=O)NC)c2)c(C)c1 | 48 | -1%
